Results as given in the NIST ThermoML archive (doi:10.1021/je400463n).
± gives the expanded uncertainty stated by the source.

Assay: mn = molality of the nth substance listed, in mol/kg
Details: 100 kPa, Liquid, Pycnometric method

CCCCCCCCCCCC[N+](C)(CCO)CCO.[Br-] [N,N-bis(2-hydroxyethyl)-N-methyldodecan-1-aminium bromide] + O
mass density [kg/m3]
Details	293.15 K	298.15 K	303.15 K	308.15 K	313.15 K	318.15 K
m1 = 0.00497	998.465 ± 0.23	997.294 ± 0.25	995.89 ± 0.26	994.266 ± 0.27	992.443 ± 0.28	990.43 ± 0.29
m1 = 0.00607	998.521 ± 0.23	997.349 ± 0.25	995.942 ± 0.26	994.317 ± 0.27	992.492 ± 0.28	990.478 ± 0.29
m1 = 0.00698	998.568 ± 0.23	997.394 ± 0.25	995.986 ± 0.26	994.359 ± 0.27	992.533 ± 0.28	990.518 ± 0.29
m1 = 0.00805	998.622 ± 0.23	997.446 ± 0.25	996.036 ± 0.26	994.408 ± 0.27	992.58 ± 0.28	990.564 ± 0.29
m1 = 0.00909	998.675 ± 0.23	997.498 ± 0.25	996.086 ± 0.26	994.456 ± 0.27	992.626 ± 0.28	990.609 ± 0.29
m1 = 0.01002	998.722 ± 0.23	997.544 ± 0.25	996.13 ± 0.26	994.499 ± 0.27	992.667 ± 0.28	990.649 ± 0.29
m1 = 0.01109	998.774 ± 0.23	997.597 ± 0.25	996.18 ± 0.26	994.548 ± 0.27	992.714 ± 0.28	990.695 ± 0.29
m1 = 0.01202	998.818 ± 0.23	997.641 ± 0.25	996.222 ± 0.26	994.59 ± 0.27	992.755 ± 0.28	990.735 ± 0.29
m1 = 0.01306	998.867 ± 0.23	997.686 ± 0.25	996.268 ± 0.26	994.637 ± 0.27	992.801 ± 0.28	990.78 ± 0.29
m1 = 0.01414	998.915 ± 0.23	997.734 ± 0.25	996.315 ± 0.26	994.681 ± 0.27	992.847 ± 0.28	990.825 ± 0.29
m1 = 0.01505	998.953 ± 0.23	997.771 ± 0.25	996.353 ± 0.26	994.719 ± 0.27	992.884 ± 0.28	990.862 ± 0.29
m1 = 0.01609	998.993 ± 0.23	997.811 ± 0.25	996.394 ± 0.26	994.756 ± 0.27	992.923 ± 0.28	990.9 ± 0.29
m1 = 0.01815	999.08 ± 0.23	997.897 ± 0.25	996.476 ± 0.26	994.837 ± 0.27	993.001 ± 0.28	990.98 ± 0.29
m1 = 0.02008	999.16 ± 0.23	997.976 ± 0.25	996.554 ± 0.26	994.913 ± 0.27	993.076 ± 0.28	991.051 ± 0.29
m1 = 0.02518	999.367 ± 0.23	998.178 ± 0.25	996.752 ± 0.26	995.11 ± 0.27	993.267 ± 0.28	991.242 ± 0.29
m1 = 0.03023	999.571 ± 0.23	998.38 ± 0.25	996.95 ± 0.26	995.305 ± 0.27	993.46 ± 0.28	991.431 ± 0.29
m1 = 0.03525	999.778 ± 0.23	998.58 ± 0.25	997.146 ± 0.26	995.497 ± 0.27	993.649 ± 0.28	991.62 ± 0.29
m1 = 0.04028	999.983 ± 0.23	998.782 ± 0.25	997.344 ± 0.26	995.692 ± 0.27	993.84 ± 0.28	991.807 ± 0.29
m1 = 0.04512	1000.19 ± 0.23	998.981 ± 0.25	997.539 ± 0.26	995.884 ± 0.27	994.027 ± 0.28	991.991 ± 0.29
m1 = 0.05025	1000.4 ± 0.23	999.187 ± 0.25	997.74 ± 0.26	996.082 ± 0.27	994.223 ± 0.28	992.184 ± 0.29
